{"source": "paper PMC9161374", "about": "(Science Translational Medicine, 2022)", "key": {"[1]": {"test_system": "SARS-CoV-2 replicon system (pBAC-SARS-CoV-2-Replicon-Luc)", "experiment": "microbe, parasite or virus in culture", "assay_type": "cell-based", "conditions": "for EC50 / EC90: Severe acute respiratory syndrome coronavirus 2, HEK-293T, 60 h; for EC50: read-out: EC50 (Confidence 95%), replicon; for EC90: read-out: EC90 (Confidence 95%), replicon"}, "Vero E6 cells": {"test_system": "Vero E6 cells", "experiment": "CCK-8 cell viability assay", "assay_type": "cell-based, African green monkey", "conditions": "individual replicate values, Fig.S4", "procedure": "To investigate the effect of drugs on cell viability, Vero E6 cells were seeded in 96-well plates at a density of 20,000 cells per well and were treated with drugs at indicated concentrations (0, 0.01, 0.1, 1, 5, 10, 50, 75, 100, 200 μM) for 48 hours. Cell viability was tested by using Cell Counting Kit-8 (CCK-8, Bimake, B34302). The figures were plotted from cell viability percentage versus the drug concentrations using GraphPad Prism 6 software.\nFig. S4. Cytotoxicity assay of compounds in Vero E6 cells.\nVero E6 cells were plated in 96-well plates and treated with increasing concentrations\nof each indicated compound, ranging from 0 to 200 μM, for 48 hours. Cell viability was\ntested using Cell Counting Kit-8 (CCK-8). Data are presented as mean ± SD."}, "[2]": {"experiment": "Permeability and efflux ratio in Caco-2 cells", "assay_type": "in vitro ADME", "conditions": "human; for Papp A→B: AB; for Papp B→A: BA", "excerpt": "ATV019, and ATV020 in Caco-2 cells.\nCompound Caco-2 AB/BA (Papp (10-6 cm/s)) a Efflux ratio"}}, "note": "“And” between values parts separate entries of the source, which are not always exact repeats. Equal entries are not always repeated.", "data": [{"compound": "CC(C)C(=O)Nc1ncnn2c([C@]3(C#N)O[C@H](COC(=O)C(C)C)[C@@H](OC(=O)C(C)C)[C@H]3OC(=O)C(C)C)ccc12", "note": "[ATV001]", "values": [{"measurement": "activity in the replicon system in comparison with parent GS-441524", "setting": "[1]", "result": "decreased antiviral activities"}]}, {"compound": "CC(=O)Nc1ncnn2c([C@]3(C#N)O[C@H](COC(C)=O)[C@@H](OC(C)=O)[C@H]3OC(C)=O)ccc12", "note": "[ATV002]", "values": [{"measurement": "activity in the replicon system in comparison with parent GS-441524", "setting": "[1]", "result": "decreased antiviral activities"}]}, {"compound": "CC(=O)OC[C@H]1O[C@@](C#N)(c2ccc3c(N)ncnn23)[C@H](OC(C)=O)[C@@H]1OC(C)=O", "note": "[ATV003]", "values": [{"measurement": "activity in the replicon system in comparison with parent GS-441524", "setting": "[1]", "result": "did not substantially change the activity"}, {"measurement": "EC50", "setting": "[1]", "result": 829, "unit": "nM"}, {"measurement": "EC90", "setting": "[1]", "result": 2320, "unit": "nM"}]}, {"compound": "CC(C)C(=O)OC[C@H]1O[C@@](C#N)(c2ccc3c(N)ncnn23)[C@H](OC(=O)C(C)C)[C@@H]1OC(=O)C(C)C", "note": "[ATV004]", "values": [{"measurement": "activity in the replicon system in comparison with parent GS-441524", "setting": "[1]", "result": "improved the inhibitory activities"}, {"measurement": "EC50", "setting": "[1]", "result": 675, "unit": "nM"}, {"measurement": "EC90", "setting": "[1]", "result": 2070, "unit": "nM"}]}, {"compound": "CC(=O)OC[C@H]1O[C@@](C#N)(c2ccc3c(N)ncnn23)[C@H](O)[C@@H]1O", "note": "[ATV007]", "values": [{"measurement": "EC50", "setting": "[1]", "result": 1960, "unit": "nM"}, {"measurement": "EC90", "setting": "[1]", "result": 3730, "unit": "nM"}]}, {"compound": "CCC(=O)OC[C@H]1O[C@@](C#N)(c2ccc3c(N)ncnn23)[C@H](O)[C@@H]1O", "note": "[ATV008]", "values": [{"measurement": "EC50", "setting": "[1]", "result": 815, "unit": "nM"}, {"measurement": "EC90", "setting": "[1]", "result": 3140, "unit": "nM"}]}, {"compound": "CCCC(=O)OC[C@H]1O[C@@](C#N)(c2ccc3c(N)ncnn23)[C@H](O)[C@@H]1O", "note": "[ATV0009]", "values": [{"measurement": "cell viability (% of control)", "setting": "Vero E6 cells; 0.01 μM compound, 0.01 µM", "result": "109.752 % of control and 112.521 % of control and 116.766 % of control"}, {"measurement": "cell viability (% of control)", "setting": "Vero E6 cells; 0.1 μM compound, 0.1 µM", "result": "123.319 % of control and 106.337 % of control and 117.182 % of control"}, {"measurement": "cell viability (% of control)", "setting": "Vero E6 cells; 1 μM compound, 1 µM", "result": "116.074 % of control and 120.089 % of control and 107.814 % of control"}, {"measurement": "cell viability (% of control)", "setting": "Vero E6 cells; 2 μM compound, 2 µM", "result": "114.09 % of control and 114.182 % of control and 114.044 % of control"}, {"measurement": "cell viability (% of control)", "setting": "Vero E6 cells; 5 μM compound, 5 µM", "result": "120.412 % of control and 124.38 % of control and 128.395 % of control"}, {"measurement": "cell viability (% of control)", "setting": "Vero E6 cells; 10 μM compound, 10 µM", "result": "124.625 % of control and 120.839 % of control and 120.84 % of control"}, {"measurement": "cell viability (% of control)", "setting": "Vero E6 cells; 50 μM compound, 50 µM", "result": "90.5983 % of control and 85.7996 % of control and 95.8178 % of control"}]}, {"compound": "N#C[C@@]1(c2ccc3c(N)ncnn23)O[C@H](COC(=O)C2CC2)[C@@H](O)[C@H]1O", "note": "[ATV012]", "values": [{"measurement": "EC50", "setting": "[1]", "result": 2170, "unit": "nM"}, {"measurement": "EC90", "setting": "[1]", "result": 3510, "unit": "nM"}]}, {"compound": "N#C[C@@]1(c2ccc3c(N)ncnn23)O[C@H](COC(=O)C2CCCC2)[C@@H](O)[C@H]1O", "note": "[ATV015]", "values": [{"measurement": "EC50", "setting": "[1]", "result": 713, "unit": "nM"}, {"measurement": "EC90", "setting": "[1]", "result": 962, "unit": "nM"}]}, {"compound": "N#C[C@@]1(c2ccc3c(N)ncnn23)O[C@H](COC(=O)CC(F)(F)F)[C@@H](O)[C@H]1O", "note": "[ATV016]", "values": [{"measurement": "EC50", "setting": "[1]", "result": 830, "unit": "nM"}, {"measurement": "EC90", "setting": "[1]", "result": 1230, "unit": "nM"}]}, {"compound": "CC(C)[C@@H](N)C(=O)OC[C@H]1O[C@@](C#N)(c2ccc3c(N)ncnn23)[C@H](O)[C@@H]1O", "note": "[ATV019]", "values": [{"measurement": "EC50", "setting": "[1]", "result": 974, "unit": "nM"}, {"measurement": "EC90", "setting": "[1]", "result": 3810, "unit": "nM"}, {"measurement": "efflux ratio", "setting": "[2]", "result": 2.47}, {"measurement": "Papp A→B", "setting": "[2]", "result": 0.28, "unit": "×10⁻⁶ cm/s"}, {"measurement": "Papp B→A", "setting": "[2]", "result": 0.68, "unit": "×10⁻⁶ cm/s"}]}, {"compound": "CC(C)[C@H](N)C(=O)OC[C@H]1O[C@@](C#N)(c2ccc3c(N)ncnn23)[C@H](O)[C@@H]1O", "note": "[ATV020]", "values": [{"measurement": "EC50", "setting": "[1]", "result": 2350, "unit": "nM"}, {"measurement": "EC90", "setting": "[1]", "result": 13400, "unit": "nM"}, {"measurement": "efflux ratio", "setting": "[2]", "result": 1.28}, {"measurement": "Papp A→B", "setting": "[2]", "result": 0.17, "unit": "×10⁻⁶ cm/s"}, {"measurement": "Papp B→A", "setting": "[2]", "result": 0.22, "unit": "×10⁻⁶ cm/s"}]}, {"compound": "CCC(C)[C@H](N)C(=O)OC[C@H]1O[C@@](C#N)(c2ccc3c(N)ncnn23)[C@H](O)[C@@H]1O", "note": "(stereo partly shown) [ATV023]", "values": [{"measurement": "EC50", "setting": "[1]", "result": 950, "unit": "nM"}, {"measurement": "EC90", "setting": "[1]", "result": 2010, "unit": "nM"}]}, {"compound": "CCC(C)[C@@H](N)C(=O)OC[C@H]1O[C@@](C#N)(c2ccc3c(N)ncnn23)[C@H](O)[C@@H]1O", "note": "(stereo partly shown) [ATV024]", "values": [{"measurement": "EC50", "setting": "[1]", "result": 864, "unit": "nM"}, {"measurement": "EC90", "setting": "[1]", "result": 1470, "unit": "nM"}]}, {"compound": "CCC(CC)COC(=O)[C@H](C)N[P@](=O)(OC[C@H]1O[C@@](C#N)(c2ccc3c(N)ncnn23)[C@H](O)[C@@H]1O)Oc1ccccc1", "note": "[RDV]", "values": [{"measurement": "cell viability (% of control)", "setting": "Vero E6 cells; 0.1 μM compound, 0.1 µM", "result": "100.353 % of control and 102.354 % of control and 103.353 % of control"}, {"measurement": "cell viability (% of control)", "setting": "Vero E6 cells; 1 μM compound, 1 µM", "result": "99.5206 % of control and 102.566 % of control and 112.154 % of control"}, {"measurement": "cell viability (% of control)", "setting": "Vero E6 cells; 2 μM compound, 2 µM", "result": "97.4544 % of control and 95.2342 % of control and 99.3423 % of control"}, {"measurement": "cell viability (% of control)", "setting": "Vero E6 cells; 5 μM compound, 5 µM", "result": "91.6526 % of control and 95.3187 % of control and 100 % of control"}, {"measurement": "cell viability (% of control)", "setting": "Vero E6 cells; 10 μM compound, 10 µM", "result": "93.1472 % of control and 90.0169 % of control and 88.1839 % of control"}, {"measurement": "cell viability (% of control)", "setting": "Vero E6 cells; 20 μM compound, 20 µM", "result": "90.3424 % of control and 95.3423 % of control and 99.3423 % of control"}, {"measurement": "cell viability (% of control)", "setting": "Vero E6 cells; 50 μM compound, 50 µM", "result": "80.3835 % of control and 84.2922 % of control and 85.9278 % of control"}]}]}
